In PMC8968710, “Structural insights into the substrate-bound condensation domains of non-ribosomal peptide synthetase AmbB” (Scientific Reports, 2022):

Tests used:
full-length AmbB = biological target: T1, full-length AmbB (Pseudomonas aeruginosa, UniProt Q9I1H0); experiment: […]-alanine aminoacylation/TCA precipitation radioassay; colorimetric pyrophosphate adenylation assay; type: biochemical; details: 5 mM ATP, 5 mM MgCl2; radioassay with labelled compound
T1 construct: full length, cleavable N-terminal SUMO tag (pET28a), NiNTA purified, E. coli host
T1 sequence (Q9I1H0 whole entry): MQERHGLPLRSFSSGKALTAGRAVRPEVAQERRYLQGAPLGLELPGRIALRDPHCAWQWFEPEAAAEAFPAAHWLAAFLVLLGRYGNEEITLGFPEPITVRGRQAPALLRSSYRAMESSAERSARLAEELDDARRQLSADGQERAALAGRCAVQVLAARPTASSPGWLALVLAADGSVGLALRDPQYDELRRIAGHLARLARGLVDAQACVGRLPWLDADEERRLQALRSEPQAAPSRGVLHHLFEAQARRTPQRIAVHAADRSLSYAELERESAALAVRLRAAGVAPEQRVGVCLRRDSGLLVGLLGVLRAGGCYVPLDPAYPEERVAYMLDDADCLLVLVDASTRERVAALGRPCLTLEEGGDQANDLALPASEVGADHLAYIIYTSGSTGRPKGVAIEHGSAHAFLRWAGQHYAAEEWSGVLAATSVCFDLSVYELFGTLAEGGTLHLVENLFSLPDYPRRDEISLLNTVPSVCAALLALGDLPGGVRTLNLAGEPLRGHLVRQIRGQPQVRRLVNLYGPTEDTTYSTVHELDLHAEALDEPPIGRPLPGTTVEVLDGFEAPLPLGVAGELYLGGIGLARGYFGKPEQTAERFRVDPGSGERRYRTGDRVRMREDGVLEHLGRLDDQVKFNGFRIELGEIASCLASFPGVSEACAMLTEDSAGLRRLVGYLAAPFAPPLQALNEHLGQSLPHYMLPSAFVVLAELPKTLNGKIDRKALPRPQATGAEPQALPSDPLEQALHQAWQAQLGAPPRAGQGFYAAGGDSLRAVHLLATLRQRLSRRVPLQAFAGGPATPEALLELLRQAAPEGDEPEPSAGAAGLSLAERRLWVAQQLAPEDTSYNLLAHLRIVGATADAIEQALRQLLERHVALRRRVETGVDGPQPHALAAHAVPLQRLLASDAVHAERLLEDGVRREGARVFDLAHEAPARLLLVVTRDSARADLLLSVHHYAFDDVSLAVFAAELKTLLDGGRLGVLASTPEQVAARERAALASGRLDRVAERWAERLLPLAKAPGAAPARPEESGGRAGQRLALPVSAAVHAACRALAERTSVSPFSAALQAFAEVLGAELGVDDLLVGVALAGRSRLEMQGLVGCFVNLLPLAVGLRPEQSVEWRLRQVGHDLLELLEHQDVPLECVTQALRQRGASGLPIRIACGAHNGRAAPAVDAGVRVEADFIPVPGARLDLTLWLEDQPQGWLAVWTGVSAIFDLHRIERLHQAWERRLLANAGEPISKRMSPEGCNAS

AmbB T–C [1] = biological target: T2, AmbB T–C (Pseudomonas aeruginosa, UniProt Q9I1H0); experiment: X-ray crystallography, […] Å; LC-MS; type: binding; details: covalent; on Ser768 of T domain, L-Ala thioester near His953 of C domain; possible Ppant/Ppant-L-Ala mixture
T2 construct: T-C bidomain, residues 727-1249, GST tag cleaved (pGEX-6P-1), E. coli host, holo form made with Sfp; Ppant on Ser768
T2 sequence (Q9I1H0 727-1249): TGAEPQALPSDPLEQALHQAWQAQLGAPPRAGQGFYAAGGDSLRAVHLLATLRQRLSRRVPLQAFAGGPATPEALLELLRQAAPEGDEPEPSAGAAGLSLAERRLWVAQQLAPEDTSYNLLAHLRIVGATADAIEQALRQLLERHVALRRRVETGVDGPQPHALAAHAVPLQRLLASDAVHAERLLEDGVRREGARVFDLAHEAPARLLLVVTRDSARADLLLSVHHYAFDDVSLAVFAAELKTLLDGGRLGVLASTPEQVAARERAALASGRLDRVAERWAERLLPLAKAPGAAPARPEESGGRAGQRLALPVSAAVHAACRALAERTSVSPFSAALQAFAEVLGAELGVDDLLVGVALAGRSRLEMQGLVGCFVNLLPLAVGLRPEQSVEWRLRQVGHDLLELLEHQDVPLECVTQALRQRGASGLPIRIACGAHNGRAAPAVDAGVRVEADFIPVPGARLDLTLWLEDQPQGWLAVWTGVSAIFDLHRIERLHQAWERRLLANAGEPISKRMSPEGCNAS

AmbB T–C [2] = biological target: T2, AmbB T–C; experiment: X-ray crystallography, […] Å; LC-MS; type: binding; details: covalent; on Ser768 of T domain, arm in donor channel of C domain

## C[C@H](N)C(=O)O [L-Ala]
full-length AmbB
  14C-alanine aminoacylation/TCA precipitation radioassay; colorimetric pyrophosph: apo full-length AmbB, which activates L-Ala (Supplementary Fig. S4a)

## C[C@H](N)C(=O)SCCNC(=O)CCNC(=O)[C@H](O)C(C)(C)COP(=O)(O)O [Ppant-L-Ala]
AmbB T–C [1]
  X-ray crystallography, 2.5 Å; LC-MS: chains B and D exhibit relatively well-defined electron density for Ppant-L-Ala

## CC(C)(COP(=O)(O)O)[C@@H](O)C(=O)NCCC(=O)NCCS [Ppant]
AmbB T–C [2]
  X-ray crystallography, 2.2 Å; LC-MS: Structure of holo AmbB T–C with Ppant (cyan stick) covalently attached to Ser768
